pIC50: −log10 of the molar value.
Molecular target: T1, human Npt2a (Homo sapiens, UniProt Q06495)
T1 construct: expressed in transfected cells
T1 sequence (Q06495 1-639): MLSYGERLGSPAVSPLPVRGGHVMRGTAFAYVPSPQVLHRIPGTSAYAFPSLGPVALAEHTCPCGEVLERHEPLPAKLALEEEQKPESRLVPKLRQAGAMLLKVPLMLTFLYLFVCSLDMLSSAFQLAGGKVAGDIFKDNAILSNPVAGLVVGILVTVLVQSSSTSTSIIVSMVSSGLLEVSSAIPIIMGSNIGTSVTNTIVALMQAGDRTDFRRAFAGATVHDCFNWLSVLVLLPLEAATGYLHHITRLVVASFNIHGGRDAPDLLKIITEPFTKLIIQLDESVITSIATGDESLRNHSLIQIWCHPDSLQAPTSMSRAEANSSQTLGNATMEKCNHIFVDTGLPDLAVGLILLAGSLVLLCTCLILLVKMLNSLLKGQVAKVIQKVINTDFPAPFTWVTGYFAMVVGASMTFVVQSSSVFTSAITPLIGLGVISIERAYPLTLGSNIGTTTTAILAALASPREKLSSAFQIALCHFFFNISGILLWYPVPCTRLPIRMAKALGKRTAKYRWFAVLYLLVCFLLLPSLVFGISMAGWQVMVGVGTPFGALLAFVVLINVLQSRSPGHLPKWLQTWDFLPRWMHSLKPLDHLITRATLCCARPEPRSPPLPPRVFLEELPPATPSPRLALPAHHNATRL
Test: Npt2a activity cell based assay, membrane potential dye, CHO T-REx hNpt2a cells
Conditions: doxycycline-induced, depolarization by sodium phosphate influx, average or median values if tested more than once
How it was run: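 Doxycycline-induced (0.5 μg/mL, 24 h) CHO T-REx cells were loaded with membrane potential dye in sodium-free NHE buffer (pH 7.4) and exposed to compound (50 μM–1 nM, 5 min, room temperature).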

**Q.** With CC(=O)c1c(C)nn(-c2cc(Nc3nn(C)c(-c4ccc(F)cc4)c3C)ncn2)c1C [Example 113, 1-[1-(6-{[5-(4-fluorophenyl)-1,4-dimethyl-1H-pyrazol-3-yl]amino}pyrimidin-4-yl)-3,5-dimethyl-1H-pyrazol-4-yl]ethanone] as the compound, how does the pIC50 read?
**A.** Its pIC50 is 7.49.

**Q.** Cc1c(-c2ccc(F)cc2)nn(CC2CC2)c1Nc1cc(-n2nc3c(c2C)C(C)(O)CC3)ncn1 (racemic) [Example 404, (±)-2-(6-{[1-(cyclopropylmethyl)-3-(4-fluorophenyl)-4-methyl-1H-pyrazol-5-yl]amino}pyrimidin-4-yl)-3,4-dimethyl-2,4,5,6-tetrahydrocyclopenta[c]pyrazol-4-ol] was tested. Which pIC50 did it give?
**A.** Its pIC50 is 7.89.

**Q.** COc1c(C)nn(-c2cc(Nc3c(C)c(-c4ccc(C#N)cc4)nn3CC3CC3)ncn2)c1C [Example 464, 4-[1-(cyclopropylmethyl)-5-{[6-(4-methoxy-3,5-dimethyl-1H-pyrazol-1-yl)pyrimidin-4-yl]amino}-4-methyl-1H-pyrazol-3-yl]benzonitrile] was tested. Which pIC50 did it give?
**A.** The pIC50 was 8.70.

**Q.** With CCOC(=O)c1c(C)nn(-c2cc(Nc3c(C)c(-c4ccc(OC(F)(F)F)cc4)nn3CC3CC3)ncn2)c1C [Example 284, ethyl 1-[6-({1-(cyclopropylmethyl)-4-methyl-3-[4-(trifluoromethoxy)phenyl]-1H-pyrazol-5-yl}amino)pyrimidin-4-yl]-3,5-dimethyl-1H-pyrazole-4-carboxylate] as the compound, how does the pIC50 read?
**A.** The pIC50 was 7.60.

**Q.** With Cc1nn(-c2cc(Nc3n[nH]c(-c4ccc(C#N)cc4)c3C)ncn2)c(C)c1Cl [Example 137, 4-(3-{[6-(4-chloro-3,5-dimethyl-1H-pyrazol-1-yl)pyrimidin-4-yl]amino}-4-methyl-1H-pyrazol-5-yl)benzonitrile] as the compound, how does the pIC50 read?
**A.** The pIC50 was 7.15.

**Q.** CCc1c(Nc2cc(-n3nc(C)cc3C(F)F)ncn2)nn(C)c1-c1ccc(C#N)cc1 [Example 217, 4-[3-({6-[5-(difluoromethyl)-3-methyl-1H-pyrazol-1-yl]pyrimidin-4-yl}amino)-4-ethyl-1-methyl-1H-pyrazol-5-yl]benzonitrile] was tested. Which pIC50 did it give?
**A.** The pIC50 was 8.70.

**Q.** How did the pIC50 turn out when Cc1c(-c2ccc(F)cc2)nn(CC2CC2)c1Nc1cc(-n2nc3c(c2C)C(C)(O)CC3)ncn1 (single isomer, unassigned) [Example 515, 2-(6-{[1-(cyclopropylmethyl)-3-(4-fluorophenyl)-4-methyl-1H-pyrazol-5-yl]amino}pyrimidin-4-yl)-3,4-dimethyl-2,4,5,6-tetrahydrocyclopenta[c]pyrazol-4-ol] was run?
**A.** The pIC50 was 6.96.

**Q.** With Cc1cc(C(F)F)n(-c2cc(Nc3nn(CC(F)F)c(-c4ccc(C#N)cc4)c3C)ncn2)n1 [Example 251, 4-[1-(2,2-difluoroethyl)-3-({6-[5-(difluoromethyl)-3-methyl-1H-pyrazol-1-yl]pyrimidin-4-yl}amino)-4-methyl-1H-pyrazol-5-yl]benzonitrile] as the compound, how does the pIC50 read?
**A.** The pIC50 was 7.85.

**Q.** COc1c(C)nn(-c2cc(Nc3nn(C)c(-c4ccc(F)cc4)c3C)ncn2)c1C [Example 434, N-[5-(4-fluorophenyl)-1,4-dimethyl-1H-pyrazol-3-yl]-6-(4-methoxy-3,5-dimethyl-1H-pyrazol-1-yl)pyrimidin-4-amine] was tested. Which pIC50 did it give?
**A.** Its pIC50 is 8.15.

**Q.** Cc1cc(C)n(-c2cc(Nc3nn(C)c(-c4ccc(OC(F)(F)F)cc4)c3C)ncn2)n1 [Example 98, 6-(3,5-dimethyl-1H-pyrazol-1-yl)-N-{1,4-dimethyl-5-[4-(trifluoromethoxy)phenyl]-1H-pyrazol-3-yl}pyrimidin-4-amine] was tested. Which pIC50 did it give?
**A.** Its pIC50 is 7.29.

**Q.** Cc1c(-c2ccc(F)cc2)nn(CC2CC2)c1Nc1cc(-n2cc(C(F)(F)F)cn2)ncn1 [Example 426, N-[1-(cyclopropylmethyl)-3-(4-fluorophenyl)-4-methyl-1H-pyrazol-5-yl]-6-[4-(trifluoromethyl)-1H-pyrazol-1-yl]pyrimidin-4-amine] was tested. Which pIC50 did it give?
**A.** Its pIC50 is 7.23.

**Q.** How did the pIC50 turn out when CC(=O)c1c(C)nn(-c2cc(Nc3c(C)c(-c4ccc(C#N)cc4)nn3C)ncn2)c1C [Example 337, 4-(5-{[6-(4-acetyl-3,5-dimethyl-1H-pyrazol-1-yl)pyrimidin-4-yl]amino}-1,4-dimethyl-1H-pyrazol-3-yl)benzonitrile] was run?
**A.** Its pIC50 is 7.18.

**Q.** With Cc1nn(-c2cc(Nc3c(C)c(-c4ccc(C#N)cc4)nn3C)ncn2)c(C(F)F)c1Cl [Example 241, 4-[5-({6-[4-chloro-5-(difluoromethyl)-3-methyl-1H-pyrazol-1-yl]pyrimidin-4-yl}amino)-1,4-dimethyl-1H-pyrazol-3-yl]benzonitrile] as the compound, how does the pIC50 read?
**A.** Its pIC50 is 8.15.

**Q.** How did the pIC50 turn out when Cc1ccc(-c2nn(CC3CC3)c(Nc3cc(-n4nc(C)cc4C(F)F)ncn3)c2C)cn1 [Example 415, N-[1-(cyclopropylmethyl)-4-methyl-3-(6-methylpyridin-3-yl)-1H-pyrazol-5-yl]-6-[5-(difluoromethyl)-3-methyl-1H-pyrazol-1-yl]pyrimidin-4-amine] was run?
**A.** Its pIC50 is 5.94.

**Q.** How did the pIC50 turn out when CCc1c(Nc2cc(-n3nc(C)cc3C)ncn2)nn(CCO)c1-c1ccc(F)cc1 [Example 111, 2-[3-{[6-(3,5-dimethyl-1H-pyrazol-1-yl)pyrimidin-4-yl]amino}-4-ethyl-5-(4-fluorophenyl)-1H-pyrazol-1-yl]ethanol] was run?
**A.** The pIC50 was 6.44.

**Q.** Cc1c(-c2ccc(F)cc2)nn(C)c1Nc1cc(-n2cc(C(F)(F)F)cn2)ncn1 [Example 427, N-[3-(4-fluorophenyl)-1,4-dimethyl-1H-pyrazol-5-yl]-6-[4-(trifluoromethyl)-1H-pyrazol-1-yl]pyrimidin-4-amine] was tested. Which pIC50 did it give?
**A.** The pIC50 was 7.82.

**Q.** With COc1c(C)nn(-c2cc(Nc3c(C)c(-c4ccc(C(F)F)nc4)nn3CC3CC3)ncn2)c1C [Example 510, N-{1-(cyclopropylmethyl)-3-[6-(difluoromethyl)pyridin-3-yl]-4-methyl-1H-pyrazol-5-yl}-6-(4-methoxy-3,5-dimethyl-1H-pyrazol-1-yl)pyrimidin-4-amine] as the compound, how does the pIC50 read?
**A.** Its pIC50 is 6.72.

**Q.** With Cc1nn(-c2cc(Nc3c(C)c(-c4ccncc4)nn3CC3CC3)ncn2)c(C)c1Cl [Example 351, 6-(4-chloro-3,5-dimethyl-1H-pyrazol-1-yl)-N-[1-(cyclopropylmethyl)-4-methyl-3-(pyridin-4-yl)-1H-pyrazol-5-yl]pyrimidin-4-amine] as the compound, how does the pIC50 read?
**A.** The pIC50 was 7.19.

**Q.** Cc1cc(C)n(-c2cc(Nc3c(Cl)c(-c4ccc(F)cc4)nn3CC3CC3)ncn2)n1 [Example 187, N-[4-chloro-1-(cyclopropylmethyl)-3-(4-fluorophenyl)-1H-pyrazol-5-yl]-6-(3,5-dimethyl-1H-pyrazol-1-yl)pyrimidin-4-amine] was tested. Which pIC50 did it give?
**A.** Its pIC50 is 8.00.

**Q.** With CCOC(=O)c1c(C)nn(-c2cc(Nc3c(C)c(-c4ccc(Cl)cc4)nn3CC3CC3)ncn2)c1C [Example 314, ethyl 1-(6-{[3-(4-chlorophenyl)-1-(cyclopropylmethyl)-4-methyl-1H-pyrazol-5-yl]amino}pyrimidin-4-yl)-3,5-dimethyl-1H-pyrazole-4-carboxylate] as the compound, how does the pIC50 read?
**A.** Its pIC50 is 8.05.

**Q.** How did the pIC50 turn out when Cc1nn(-c2cc(Nc3c(C)c(-c4ccc(F)cc4)nn3CC3CC3)ncn2)c(C)c1C(C)O (racemic) [Example 249, (±)-1-[1-(6-{[1-(cyclopropylmethyl)-3-(4-fluorophenyl)-4-methyl-1H-pyrazol-5-yl]amino}pyrimidin-4-yl)-3,5-dimethyl-1H-pyrazol-4-yl]ethanol] was run?
**A.** The pIC50 was 7.66.

**Q.** Cc1nn(-c2cc(Nc3c(C)c(-c4ccc(C(F)F)nc4)nn3C)ncn2)c(C)c1C(F)(F)F [Example 473, N-{3-[6-(difluoromethyl)pyridin-3-yl]-1,4-dimethyl-1H-pyrazol-5-yl}-6-[3,5-dimethyl-4-(trifluoromethyl)-1H-pyrazol-1-yl]pyrimidin-4-amine] was tested. Which pIC50 did it give?
**A.** The pIC50 was 6.80.

**Q.** Cc1nn(-c2cc(Nc3nn(C)c(-c4ccc(F)cc4)c3C)ncn2)c(C)c1C(F)(F)F [Example 383, 6-[3,5-dimethyl-4-(trifluoromethyl)-1H-pyrazol-1-yl]-N-[5-(4-fluorophenyl)-1,4-dimethyl-1H-pyrazol-3-yl]pyrimidin-4-amine] was tested. Which pIC50 did it give?
**A.** The pIC50 was 8.30.

**Q.** With Cc1cc(C)n(-c2cc(Nc3[nH]nc(-c4ccc(F)cc4)c3CC(F)(F)F)ncn2)n1 [Example 36, 6-(3,5-dimethyl-1H-pyrazol-1-yl)-N-[3-(4-fluorophenyl)-4-(2,2,2-trifluoroethyl)-1H-pyrazol-5-yl]pyrimidin-4-amine] as the compound, how does the pIC50 read?
**A.** The pIC50 was 5.77.

**Q.** Cc1nn(-c2cc(Nc3c(C)c(-c4ccc(C#N)cc4)nn3CC3CC3)ncn2)c(C)c1C(O)C(F)(F)F (racemic) [Example 358, 4-{1-(cyclopropylmethyl)-5-[(6-{3,5-dimethyl-4-[(±)-2,2,2-trifluoro-1-hydroxyethyl]-1H-pyrazol-1-yl}pyrimidin-4-yl)amino]-4-methyl-1H-pyrazol-3-yl}benzonitrile] was tested. Which pIC50 did it give?
**A.** The pIC50 was 8.00.

**Q.** How did the pIC50 turn out when CCc1c(Nc2cc(-n3nc(C)c(Cl)c3C(F)F)ncn2)nn(CC(F)F)c1-c1ccc(F)cc1 [Example 172, 6-[4-chloro-5-(difluoromethyl)-3-methyl-1H-pyrazol-1-yl]-N-[1-(2,2-difluoroethyl)-4-ethyl-5-(4-fluorophenyl)-1H-pyrazol-3-yl]pyrimidin-4-amine] was run?
**A.** The pIC50 was 7.24.

**Q.** With CCOC(=O)c1c(C)nn(-c2cc(Nc3c(C)c(-c4ccc(F)cc4F)nn3C)ncn2)c1C [Example 363, ethyl 1-(6-{[3-(2,4-difluorophenyl)-1,4-dimethyl-1H-pyrazol-5-yl]amino}pyrimidin-4-yl)-3,5-dimethyl-1H-pyrazole-4-carboxylate] as the compound, how does the pIC50 read?
**A.** The pIC50 was 6.82.
